Test results published in patent US11643429B2, “Compounds and methods for the treatment of ocular disorders” (Azura Ophthalmics Ltd., priority 2019, dated 2023).
Read-outs that look alike come from different tables or passages of the source.

Experiment: Aqueous Hydrolysis Stability Assay
Type: physicochemical
Details: 50 mM HEPES buffer pH 7.5, read-out: T1/2 Aq Stability
Protocol: Determination of aqueous stability of the test compounds was performed using HIPLC-MS. A test compound 10 mM stock solution was prepared in DMSO. 10 μl of the DMSO stock solution was dissolved in 990 μl of 50 mM HEPES pH 7.5 buffer or 1:1 (v/v) of Acetonitrile:Water to make a 100 μM solution. Final DMSO concentration was 1%. The solution was kept at room temperature and injected without delay into the LCMS (Waters Xevo TQ-S or Micromass Ultima). Additional injections were performed at appropriate time points. Half-life (T1/2) of the parent conjugate was calculated using the peak area of the parent conjugate at each time point in the linear region of the log-linear plot.

half-life at 100 µM (ND, estimated, in HEPES pH 7.5) [min]	half-life at 100 µM (HEPES pH 7.5, room temperature) [min]	SMILES
< 3		CC[C@H]1OC(=O)[C@H](C)[C@@H](O[C@H]2C[C@@](C)(OC)[C@@H](O)[C@H](C)O2)[C@H](C)[C@@H](O[C@@H]2O[C@H](C)C[C@H](N(C)C)[C@H]2OC(=O)CO)[C@](C)(O)C[C@@H](C)CN(C)[C@H](C)[C@@H](O)[C@]1(C)O [Compound 1, (2S,3R,4S,6R)-4-(Dimethylamino)-2-(((2R,3S,4R,5R,8R,10R,11R,12S,13S,14R)-2-ethyl-3,4,10-trihydroxy-13-(((2R,4R,5S,6S)-5-hydroxy-4-methoxy-4,6-dimethyltetrahydro-2H-pyran-2-yl)oxy)-3,5,6,8,10,12,14-heptamethyl-15-oxo-1-oxa-6-azacyclopentadecan-11-yl)oxy)-6-methyltetrahydro-2H-pyran-3-yl 2-hydroxyacetate]
	< 3	CC[C@H]1OC(=O)[C@H](C)[C@@H](O[C@H]2C[C@@](C)(OC)[C@@H](O)[C@H](C)O2)[C@H](C)[C@@H](O[C@@H]2O[C@H](C)C[C@H](N(C)C)[C@H]2OC(=O)[C@@H](C)O)[C@](C)(O)C[C@@H](C)CN(C)[C@H](C)[C@@H](O)[C@]1(C)O [Compound 2, (2S,3R,4S,6R)-4-(Dimethylamino)-2-(((2R,3S,4R,5R,8R,10R,11R,12S,13S,14R)-2-ethyl-3,4,10-trihydroxy-13-(((2R,4R,5S,6S)-5-hydroxy-4-methoxy-4,6-dimethyltetrahydro-2H-pyran-2-yl)oxy)-3,5,6,8,10,12,14-heptamethyl-15-oxo-1-oxa-6-azacyclopentadecan-11-yl)oxy)-6-methyltetrahydro-2H-pyran-3-yl (R)-2-hydroxypropanoate]
	5.7	CC[C@H]1OC(=O)[C@H](C)[C@@H](O[C@H]2C[C@@](C)(OC)[C@@H](O)[C@H](C)O2)[C@H](C)[C@@H](O[C@@H]2O[C@H](C)C[C@H](N(C)C)[C@H]2OC(=O)COCCOCCOCCOCCO)[C@](C)(O)C[C@@H](C)CN(C)[C@H](C)[C@@H](O)[C@]1(C)O [Compound 4, (2S,3R,4S,6R)-4-(Dimethylamino)-2-(((2R,3S,4R,5R,8R,10R,11R,12S,13S,14R)-2-ethyl-3,4,10-trihydroxy-13-(((2R,4R,5S,6S)-5-hydroxy-4-methoxy-4,6-dimethyltetrahydro-2H-pyran-2-yl)oxy)-3,5,6,8,10,12,14-heptamethyl-15-oxo-1-oxa-6-azacyclopentadecan-11-yl)oxy)-6-methyltetrahydro-2H-pyran-3-yl 14-hydroxy-3,6,9,12-tetraoxatetradecanoate]
< 3		CC[C@H]1OC(=O)[C@H](C)[C@@H](O[C@H]2C[C@@](C)(OC)[C@@H](O)[C@H](C)O2)[C@H](C)[C@@H](O[C@@H]2O[C@H](C)C[C@H](N(C)C)[C@H]2OC(=O)[C@@H](C)OC(=O)[C@H](CS)NC(C)=O)[C@](C)(O)C[C@@H](C)CN(C)[C@H](C)[C@@H](O)[C@]1(C)O [Compound 6, (R)-1-(((2S,3R,4S,6R)-4-(Dimethylamino)-2-(((2R,3S,4R,5R,8R,10R,11R,12S,13S,14R)-2-ethyl-3,4,10-trihydroxy-13-(((2R,4R,5S,6S)-5-hydroxy-4-methoxy-4,6-dimethyltetrahydro-2H-pyran-2-yl)oxy)-3,5,6,8,10,12,14-heptamethyl-15-oxo-1-oxa-6-azacyclopentadecan-11-yl)oxy)-6-methyltetrahydro-2H-pyran-3-yl)oxy)-1-oxopropan-2-yl acetyl-L-cysteinate]
< 3		CC[C@H]1OC(=O)[C@H](C)[C@@H](O[C@H]2C[C@@](C)(OC)[C@@H](O)[C@H](C)O2)[C@H](C)[C@@H](O[C@@H]2O[C@H](C)C[C@H](N(C)C)[C@H]2OC(=O)[C@H](C)OC(=O)[C@@H](C)O)[C@](C)(O)C[C@@H](C)CN(C)[C@H](C)[C@@H](O)[C@]1(C)O [Compound 7, (2S,3R,4S,6R)-4-(Dimethylamino)-2-(((2R,3S,4R,5R,8R,10R,11R,12S,13S,14R)-2-ethyl-3,4,10-trihydroxy-13-(((2R,4R,5S,6S)-5-hydroxy-4-methoxy-4,6-dimethyltetrahydro-2H-pyran-2-yl)oxy)-3,5,6,8,10,12,14-heptamethyl-15-oxo-1-oxa-6-azacyclopentadecan-11-yl)oxy)-6-methyltetrahydro-2H-pyran-3-yl(S)-2-(((R)-2-hydroxypropanoyl)oxy)propanoate]
< 3		CC[C@H]1OC(=O)[C@H](C)[C@@H](O[C@H]2C[C@@](C)(OC)[C@@H](O)[C@H](C)O2)[C@H](C)[C@@H](O[C@@H]2O[C@H](C)C[C@H](N(C)C)[C@H]2OC(=O)CCCC[C@@H]2CCSS2)[C@](C)(O)C[C@@H](C)CN(C)[C@H](C)[C@@H](O)[C@]1(C)O [Compound 9, (2S,3R,4S,6R)-4-(Dimethylamino)-2-(((2R,3S,4R,5R,8R,10R,11R,12S,13S,14R)-2-ethyl-3,4,10-trihydroxy-13-(((2R,4R,5S,6S)-5-hydroxy-4-methoxy-4,6-dimethyltetrahydro-2H-pyran-2-yl)oxy)-3,5,6,8,10,12,14-heptamethyl-15-oxo-1-oxa-6-azacyclopentadecan-11-yl)oxy)-6-methyltetrahydro-2H-pyran-3-yl 5-((R)-1,2-dithiolan-3-yl)pentanoate]

SMILES	half-life at 100 µM (ND, estimated, in HEPES pH 7.5) [min]	half-life at 100 µM (HEPES pH 7.5, room temperature) [min]
CC[C@H]1OC(=O)[C@H](C)[C@@H](O[C@H]2C[C@@](C)(OC)[C@@H](O)[C@H](C)O2)[C@H](C)[C@@H](O[C@@H]2O[C@H](C)C[C@H](N(C)C)[C@H]2OC(=O)[C@@H](C)OC(C)=O)[C@](C)(O)C[C@@H](C)CN(C)[C@H](C)[C@@H](O)[C@]1(C)O [Compound 8, (2S,3R,4S,6R)-4-(Dimethylamino)-2-(((2R,3S,4R,5R,8R,10R,11R,12S,13S,14R)-2-ethyl-3,4,10-trihydroxy-13-(((2R,4R,5S,6S)-5-hydroxy-4-methoxy-4,6-dimethyltetrahydro-2H-pyran-2-yl)oxy)-3,5,6,8,10,12,14-heptamethyl-15-oxo-1-oxa-6-azacyclopentadecan-11-yl)oxy)-6-methyltetrahydro-2H-pyran-3-yl (R)-2-acetoxypropanoate]	< 3	
